We go through three molecules from patent US6812380B2, “Compositions and methods of zearalenone detoxification” (Pioneer Hi-Bred International, Inc., priority 2001, dated 2004).

The subject of data set [1] is rats. As to conditions: rat, in vivo; cited from earlier work.
The subject of data set [2] is uterine tissues. The settings on record: mouse, in vivo; cited from earlier work.
The subject of data set [3] is zearalenone esterase synthesis in G. roseum. The settings on record: cited from earlier work.
In data set [4] the test system is human breast cancer cells. The settings on record: cited from earlier work.
The subject of data set [5] is Armenian hamster. As to conditions: in vivo; cited from earlier work.
In data set [6] the test system is mice. As to conditions: mouse, in vivo; cited from earlier work.
For data set [7], the target named is T1, ZES2b translation products (Bionectria ochroleuca, UniProt Q8NKB0, A65V/H263Y/S41R/T3I).
T1 construct: made in house; host or cells: cell-free coupled transcription/translation (Roche RTS500; T7 polymerase, E. coli ribosomes) from plasmids pFMB35-34 (cDNA) and pFMB35-13 (genomic DNA)
T1 sequence (Q8NKB0 1-264 T3I/S41R/A65V/H263Y): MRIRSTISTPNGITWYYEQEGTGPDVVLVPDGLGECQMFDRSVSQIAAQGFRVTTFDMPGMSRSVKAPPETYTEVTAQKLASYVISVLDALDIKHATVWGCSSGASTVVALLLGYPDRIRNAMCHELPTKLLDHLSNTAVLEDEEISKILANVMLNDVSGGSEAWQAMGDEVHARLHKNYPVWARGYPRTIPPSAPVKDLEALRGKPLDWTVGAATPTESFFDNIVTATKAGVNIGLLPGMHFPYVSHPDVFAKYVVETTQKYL
Format: biochemical, Gliocladium roseum. As to conditions: 37° C. for 16 hours.

Data set [8] has as its system humans. As to conditions: in vivo; cited from earlier work.
In data set [9] the test system is ZES1, ZES2, and ZES2b transcripts. Description: Differential transcript profiling (Curagen Profiling) of G. roseum cultures. Format: cell-based, Gliocladium roseum. The settings on record: G. roseum cultured with 10 μg/ml for 12 hours at 22° C. The method, then: The ZES1, ZES2, and ZES2b sequences of the invention were identified by assaying for differential expression patterns in the presence of α-zearalenol and β-zearalenol, which allowed for identification of the nucleotide sequences of the invention. Specifically, G. roseum was cultured in the presence of either 10 μg/ml α-zearalenol or 10 μg/ml β-zearalenol for 12 hours at 22° C. Following culturing, Curagen Profiling technology was used to identify transcripts present in α-zearalenol-induced cultures but absent in β-zearalenol-induced cultures.

For the molecule `C[C@H]1CCCC(=O)CCC/C=C/c2cc(O)cc(O)c2C(=O)O1` [zearalenone], the teratogenicity result in data set [1] is listed as “teratogenic”. Further, in data set [2], the “modulation of uterine tissues” value is reported as “induce modulation of uterine tissues”. The “induction of synthesis of zearalenone esterase in G. roseum” value (shortened to “induction of synthesis … in G. roseum”) in data set [3] is on record as “occurs only when zearalenone or its derivative α-zearalenol is present in the culture medium”. Also, the “entry of human breast cancer cells into the cell cycle” value in data set [4] is reported as “stimulates human breast cancer cells to enter the cell cycle”. Further, the “induction of hepatic carcinomas” value in data set [5] is given as “induce hepatic carcinomas”. Further, the carcinogenicity entry in [6] is given as “carcinogenic”. Also, in [7], the “degradation of substrate after incubation with the translation product of pFMB35-13” value (shortened to “degradation of substrate … of pFMB35-13”) is given as “completely degraded” and the “degradation of substrate after incubation with the translation product of pFMB35-34” value (“degradation of substrate … of pFMB35-34” for short) is given as “completely degraded”. In data set [8], the “estrogenic effects in humans” value is on record as “exhibits estrogenic effects” and the “hyperestrogenic syndrome in humans” value is recorded as “causes hyperestrogenic syndrome”.

`C[C@H]1CCC[C@H](O)CCC/C=C/c2cc(O)cc(O)c2C(=O)O1` [α-zearalenol]: in [3], the “induction of synthesis … in G. roseum” value is recorded as “occurs only when zearalenone or its derivative α-zearalenol is present in the culture medium”. Also, the “expression of ZES1, ZES2, and ZES2b transcripts in induced cultures” value in [9] is “upregulated”. For the same molecule, in [7], the “degradation of substrate … of pFMB35-13” value was “completely degraded” and the “degradation of substrate … of pFMB35-34” value was “completely degraded”.

As for `C[C@H]1CCC[C@@H](O)CCC/C=C/c2cc(O)cc(O)c2C(=O)O1` [β-zearalenol], the “induction of synthesis … in G. roseum” value in data set [3] is “does not induce synthesis of zearalenone esterase”. In data set [7], the “degradation of substrate … of pFMB35-13” value is reported as “completely degraded” and the “degradation of substrate … of pFMB35-34” value is reported as “completely degraded”.
